Results as given in US9796717B2, “Tricyclic heterocycles as anticancer agents” (ICAHN SCHOOL OF MEDICINE AT MOUNT SINAI, priority 2013, dated 2017).
Where two headings read alike, the source gives them in different places.

Tests used:
[1] = system: CD4 naïve cells; test: Induction of Treg (Foxp3+) from naïve CD4 T cells; format: cell-based; conditions: control compounds, concentration not given; 3 days
Protocol: Example 30 has been tested for its ability to induce Treg from naïve CD4 T cells. […] Fifty thousand CD4 naïve cells (CD62Lhi,CD25 low, CD4 positive) were incubated with 2 ng/mL TGFβ, 1 ug/mL anti-CD3, 100 ng/mL IL-2, 50000 APCs per well and the compounds 10 μM, 5 μM and 2.5 μM concentrations. The cells were incubated for 3 days and then stained for CD4 and Foxp3 expression. Results were expressed as fold increase over the % induced in control (DMSO) wells (typically 20-25% Foxp3+). AKTi, a small molecule AKT inhibitor, was used as a positive control; it induced about a 4-fold increase. […] The effects of Example 30 on iTreg induction are amplified as the TGFβ concentration decreases.

[2] = system: H1650 lung cancer cells; test: Cell viability assay (MTT, IC50 determination); format: cell-based; conditions: Homo sapiens, NCI-H1650, 48 h after drug treatment, examples 100-103
Protocol: Cell Viability Assays (IC50 Determination)
Cell viability assays were performed according to Denizot, F. and R. Lang, Journal of Immunological Methods, 1986. 89(22): p. 271-277. H1650 lung cancer cells were plated at 150,000 cells per well in a 12 well plate. Twenty-four hours after plating, cells were treated as described with increasing concentrations of drug and control. Forty-eight hours after drug treatment, cells were treated with 100 μL of 3-(4,5-Dimethylthiazol-2-yl)-2,5-diphenyltetrazolium bromide (MTT) and incubated for 2 hours at 37 C. The MTT solution was subsequently replaced with 300 μl of n-propyl alcohol and re-aliquoted to a 96 well plates. Spectrophotometric analysis of each solution was performed using a 96 well plate reader at 600 nm in triplicate. The examples up to number 80 in Table 1 below are taken from PCT WO2013/025882, published 21 Feb. 2013. They illustrate biological activities of compounds that share a tricyclic scaffold.

[3] = system: H1650 lung cancer cells; design: % @ 20 μM: scale not given here; conditions: cited from earlier work; for IC50: examples up to number 80 taken from PCT WO2013/025882, read-out: IC50 (μM), Cell Viability Data
[4] = system: BALB/c hearts transplanted into fully allogeneic B6 recipients; test: Heart allograft survival; format: in vivo, mice; conditions: 100 mg/kg i.p.; n=4; untreated rejected by day 8; p<0.05 vs control
Protocol: To test for a clinically relevant in vivo effect, BALB/c hearts were transplanted into fully allogeneic B6 recipients. While untreated animals rejected their grafts by day 8 n=4, the grafts in the mice treated with 100 mg/kg i.p. of Example 30 lasted 18 days n=4, p<0.05 vs control, a statistically and clinically significant effect.

[5] = system: EGFR-L858R/CCSP mice; test: In vivo lung cancer model (MRI tumor volume); conditions: 100 mg/kg i.p. every other day for two weeks; DMSO control 20% increase
Protocol: The in vivo lung cancer model is described in Politi et al., Genes Dev. Jun. 1, 2006 20: 1496-1510. EGFR-L858R/CCSP mice were fed doxycycline-impregnanted food pellets to induce tumor formation. After 8-12 weeks, mice were imaged in a Bruker 4.7T Biospec scanner to confirm lung nodule development. After tumor confirmation, the compound of Example 30 was prepared in DMSO (Sigma) and administered i.p. at 100 mg/kg every other day for two weeks. After treatment, the mice were re-imaged by MRI, and pre-treatment and post-treatment lung volumes were calculated by visible lung opacity present in each axial image using Osirix 4.1.1. DMSO control animals show a 20% increase in tumor volume over two week treatment period. Animals treated with the compound of Example 30 show a 60% decrease in tumor volume over two week treatment period.

Row | IC50 [2] [µM] | SMILES | IC50 ([3]; MTT, 48 h after drug treatment) [µM] | further results
1 | – | O=C(CCCN1CCC(O)(c2ccc(Cl)cc2)CC1)c1ccc(F)cc1 [Haloperidol] | – | fold increase in iTreg over control (DMSO) wells [1]: did not induce a statistically significant increase
2 | 20 | O=S(=O)(NCCCN1c2ccccc2CCc2cccnc21)c1ccc(OC(F)(F)F)cc1 [Example 100, N-(3-(5H-Benzo[b]pyrido[3,2-f]azepin-11(6H)-yl)propyl)-4-(trifluoromethoxy)benzenesulfonamide] | – | –
3 | – | O=S(=O)(N[C@H]1CCC[C@@H](N2c3ccccc3CCc3ccccc32)C1)c1ccc(OC(F)(F)F)cc1 (relative stereo) [Example 73 cis, cis-N-(3-(10,11-dihydro-5H-dibenzo[b,f]azepin-5-yl)cyclohexyl)-4-(trifluoromethoxy)benzenesulfonamide] | 5 | –
4 | – | O=S(=O)(NCCCN1c2ccccc2CCc2ccc(Cl)cc21)c1ccc(Cl)cc1F [Example 28, N-(3-(3-chloro-10,11-dihydro-5H-dibenzo[b,f]azepin-5-yl)propyl)-4-chloro-2-fluorobenzenesulfonamide] | – | IC50 (μM), Cell Viability Data ([3]; MTT, 48 h after drug treatment, examples up to number 80 taken from PCT WO2013/025882): INACTIVE
5 | – | O=S(=O)(N[C@H]1CCC[C@H](N2c3ccccc3CCc3ccccc32)C1)c1ccc(OC(F)(F)F)cc1 (relative stereo) [Example 73 trans, trans-N-(3-(10,11-dihydro-5H-dibenzo[b,f]azepin-5-yl)cyclohexyl)-4-(trifluoromethoxy)benzenesulfonamide] | 15 | –
6 | – | Cc1ccc(S(=O)(=O)NCCN2c3ccccc3Sc3ccc(Cl)cc32)cc1 [Example 18, N-(2-(2-chloro-10H-phenothiazin-10-yl)pethyl)4-methylbenzenesulfonamide] | 24.4 | –
7 | – | O=S(=O)(NCCCN1c2ccccc2CCc2ccc(Cl)cc21)c1cnc(Cl)c(Br)c1 [Example 63, 5-Bromo-6-chloro-N-(3-(3-chloro-10,11-dihydro-5H-dibenzo[b,f]azepin-5-yl)propyl)pyridine-3-sulfonamide] | – | % @ 20 μM ([3]; 20 μM, taken from PCT WO2013/025882): 65% @ 20
8 | 30 | O=S(=O)(NCCCN1c2ccccc2CCc2ncccc21)c1ccc(Cl)cc1 [Example 103, 4-Chloro-N-(3-(10,11-dihydro-5H-benzo[b]pyrido[2,3-f]azepin-5-yl)propyl)benzenesulfonamide] | – | –
9 | – | O=S(=O)(NCCCN1c2ccccc2CCc2ccc(Cl)cc21)c1ccc(OC(F)(F)F)cc1 [Example 30, N-(3-(3-chloro-10,11-dihydro-5H-dibenzo[b,f]azepin-5-yl)propyl)-4-(trifluoromethoxy)benzenesulfonamide] | – | graft survival [4]: 18 days; decrease in tumor volume over two week treatment period [5]: 60%
10 | 25 | O=S(=O)(NCCCN1c2ccccc2CCc2cccnc21)c1ccc(Cl)cc1 [Example 101, N-(3-(5H-Benzo[b]pyrido[3,2-f]azepin-11(6H)-yl)propyl)-4-chlorobenzenesulfonamide] | – | –
11 | 30 | O=S(=O)(NCCCN1c2ccccc2CCc2ncccc21)c1ccc(OC(F)(F)F)cc1 [Example 102, N-(3-(10,11-Dihydro-5H-benzo[b]pyrido[2,3-f]azepin-5-yl)propyl)-4-(trifluoromethoxy)benzenesulfonamide] | – | –
12 | – | O=S(=O)(NCCCN1c2ccccc2CCc2ccc(Cl)cc21)c1cc(F)cc(F)c1 [Example 13, N-(3-(3-chloro-10,11-dihydro-5H-dibenzo[b,f]azepin-5-yl)propyl)-3,5-difluorobenzenesulfonamide] | 18 | –
13 | – | O=S(=O)(NCCC=C1c2ccccc2Sc2ccccc21)c1ccc(OC(F)(F)F)cc1 [Example 50, N-(3-(9H-thioxanthen-9-ylidene)propyl)-4-(trifluoromethoxy)benzenesulfonamide] | ~15 | –
